# Measured values from ChEMBL document CHEMBL1201862, “PubChem BioAssay data set” (2004).
# Active and inactive are the calls of the source.
# Experiments:
# Leucine aminopeptidase = target: T1, Leucine aminopeptidase (Plasmodium falciparum 3D7, UniProt Q8IL11); assay: P. falciparum M17LAP inhibitors, primary screen, biochemical, fluorogenic H-Leu-NHMec substrate, 1536-well (AID 1619); assay type: functional
# T1 sequence (Q8IL11 whole entry): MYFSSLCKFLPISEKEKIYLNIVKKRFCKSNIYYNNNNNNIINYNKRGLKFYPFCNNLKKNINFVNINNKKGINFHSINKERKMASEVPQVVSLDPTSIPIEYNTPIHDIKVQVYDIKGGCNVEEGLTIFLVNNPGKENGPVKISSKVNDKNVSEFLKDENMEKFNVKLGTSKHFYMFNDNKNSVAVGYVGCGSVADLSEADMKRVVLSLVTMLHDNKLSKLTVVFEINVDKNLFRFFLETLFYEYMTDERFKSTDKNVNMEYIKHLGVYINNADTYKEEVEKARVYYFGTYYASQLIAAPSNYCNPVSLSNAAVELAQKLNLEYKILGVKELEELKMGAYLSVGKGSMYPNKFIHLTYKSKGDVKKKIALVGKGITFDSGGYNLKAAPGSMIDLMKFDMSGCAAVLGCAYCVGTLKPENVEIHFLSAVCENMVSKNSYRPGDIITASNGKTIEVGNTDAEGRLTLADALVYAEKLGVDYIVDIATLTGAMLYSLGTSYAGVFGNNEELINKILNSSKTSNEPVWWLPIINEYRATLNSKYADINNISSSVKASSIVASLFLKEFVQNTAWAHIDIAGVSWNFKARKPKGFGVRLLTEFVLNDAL
# Mucolipin-3 = target: T2, Mucolipin-3 (Homo sapiens, UniProt Q8TDD5); assay: Fluorescence counterscreen assay for […] agonists: dose response cell-based high-throughput screening assay to identify agonists of the transient receptor potential channel ML3 (TRPML3). [Related pubchem assays: 1424, 1448 ]; assay type: functional
# T2 sequence (Q8TDD5 whole entry): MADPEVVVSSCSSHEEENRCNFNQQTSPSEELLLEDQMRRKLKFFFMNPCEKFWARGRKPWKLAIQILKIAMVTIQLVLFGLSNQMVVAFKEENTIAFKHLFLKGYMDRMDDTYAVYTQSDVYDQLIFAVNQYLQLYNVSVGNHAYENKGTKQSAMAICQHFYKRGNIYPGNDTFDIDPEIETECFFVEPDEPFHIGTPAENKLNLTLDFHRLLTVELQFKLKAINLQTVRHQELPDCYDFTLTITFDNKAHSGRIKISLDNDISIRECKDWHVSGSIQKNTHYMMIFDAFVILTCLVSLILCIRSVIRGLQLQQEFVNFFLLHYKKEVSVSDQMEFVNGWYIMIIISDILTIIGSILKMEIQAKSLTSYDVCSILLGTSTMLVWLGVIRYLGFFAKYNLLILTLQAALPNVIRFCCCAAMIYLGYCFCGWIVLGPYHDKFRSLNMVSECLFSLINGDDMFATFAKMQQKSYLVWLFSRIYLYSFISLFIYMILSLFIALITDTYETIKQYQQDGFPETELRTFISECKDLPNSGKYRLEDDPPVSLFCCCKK
# Ion channel NompC = Ion channel NompC (Danio rerio, UniProt Q7T1G6); assay: Dose response cell-based high-throughput screening assay for agonists of the transient receptor potential channel N1 (TRPN1). [Related pubchem assays (depositor defined):AID1424, AID1448]; assay type: functional
# [1] = mitochondrial function rescue without frataxin homolog – Friedreich's ataxia, plus single-dose screen, dose response (AID 1465); assay type: functional;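 further: yeast depleted of Yfh1p frataxin homolog grown on glycerol needing respiration; WST-1 tetrazolium dye reduction as measure of cellular dehydrogenase metabolic activity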
# [2] = target: Peroxisome proliferator-activated receptor gamma/Nuclear receptor coactivator 1 (Homo sapiens, UniProt P37231); assay type: functional;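 further: agonist potency as compounds enhance coactivator SRC-1 recruitment to PPARgamma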
# [3] = target: T3, Calpain-2 catalytic subunit (Sus scrofa, UniProt P43367); assay: m-calpain protease blockers, concentration series – biochemical, fluorogenic peptide substrate, dose response (AID 1420); assay type: functional
# T3 sequence (P43367 whole entry): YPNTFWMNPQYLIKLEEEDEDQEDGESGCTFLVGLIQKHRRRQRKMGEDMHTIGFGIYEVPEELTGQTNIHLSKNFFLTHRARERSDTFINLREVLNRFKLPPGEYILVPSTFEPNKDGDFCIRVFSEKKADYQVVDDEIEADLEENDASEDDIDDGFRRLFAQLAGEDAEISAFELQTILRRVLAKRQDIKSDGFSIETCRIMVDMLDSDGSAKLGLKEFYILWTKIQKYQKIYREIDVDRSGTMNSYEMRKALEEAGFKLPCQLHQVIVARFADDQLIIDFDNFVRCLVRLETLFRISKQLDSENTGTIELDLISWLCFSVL
# [4] = target: Peroxisome proliferator-activated receptor gamma/Nuclear receptor coactivator 2 (Homo sapiens, UniProt P37231); assay type: functional;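 further: agonist potency for raising coactivator recruitment to the receptor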
# [5] = target: Peroxisome proliferator-activated receptor gamma/Nuclear receptor coactivator 3 (Homo sapiens, UniProt P37231); assay type: functional;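 further: agonist potency for raising coactivator recruitment to the receptor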
# [6] = CMV-driven luciferase expression suppression in HEK293 – cell-based, luminescence, dry powder, counter-screen for Pax8 inhibitor project, dose response (AID 743020); assay type: functional
# Paired box protein Pax-8 = Paired box protein Pax-8 (Homo sapiens, UniProt Q06710); assay: PAX8 transcriptional activity inhibition in RMG-I – RMG-I cells, luciferase, cherry-pick, dose response (AID 687027); assay type: functional, cell-based;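 further: luciferase reporter driven by Pax8 target thyroperoxidase promoter measured by SteadyGlo luminescence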
# [7] = target: T4, Voltage-gated N-type calcium channel alpha-1B subunit/Amyloid beta A4 precursor protein-binding family A member 1 (Homo sapiens, UniProt Q00975+Q02410); assay type: protein assay
# [8] = general cell-killing toxicity readout – plate reader, dry powder samples, cytotoxicity control for PAX8 inhibitor project, dose response (AID 743021); assay type: functional, cell-based
# Protein RecA = target: T5, Protein RecA (Mycobacterium tuberculosis, UniProt P9WHJ3); assay: Fluorescence Cell-Free Homogeneous Dose Retest to Identify Inhibitors of RecA-Intein Splicing Activity. [Related pubchem assays (depositor defined):AID2097, AID2223, AID489010, AID492950]; assay type: functional
# T5 sequence (P9WHJ3 whole entry): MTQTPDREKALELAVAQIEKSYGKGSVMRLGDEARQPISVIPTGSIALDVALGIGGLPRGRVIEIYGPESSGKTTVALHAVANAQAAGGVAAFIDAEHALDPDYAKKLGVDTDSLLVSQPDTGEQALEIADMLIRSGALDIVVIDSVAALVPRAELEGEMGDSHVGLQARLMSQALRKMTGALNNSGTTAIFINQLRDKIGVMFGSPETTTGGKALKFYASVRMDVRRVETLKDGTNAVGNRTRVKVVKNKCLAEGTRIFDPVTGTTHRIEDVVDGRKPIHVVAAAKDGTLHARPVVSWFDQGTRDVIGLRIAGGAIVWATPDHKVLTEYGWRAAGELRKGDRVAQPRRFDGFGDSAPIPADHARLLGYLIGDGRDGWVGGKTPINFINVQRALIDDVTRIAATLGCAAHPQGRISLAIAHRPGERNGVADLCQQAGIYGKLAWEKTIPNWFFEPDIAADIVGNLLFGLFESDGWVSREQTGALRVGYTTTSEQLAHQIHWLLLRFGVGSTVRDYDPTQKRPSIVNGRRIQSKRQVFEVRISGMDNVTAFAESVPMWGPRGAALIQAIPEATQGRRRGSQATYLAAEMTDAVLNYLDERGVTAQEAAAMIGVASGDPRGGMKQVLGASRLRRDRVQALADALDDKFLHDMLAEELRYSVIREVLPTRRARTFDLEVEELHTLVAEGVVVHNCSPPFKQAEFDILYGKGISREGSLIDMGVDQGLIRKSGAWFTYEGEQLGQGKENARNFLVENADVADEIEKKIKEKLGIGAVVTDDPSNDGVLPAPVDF
# [9] = target: T6, Replicative DNA helicase DnaB (Mycobacterium tuberculosis, UniProt P9WMR3); assay: DnaB intein splicing inhibitors, dose response, biochemical, cell-free fluorescence (AID 449749); assay type: functional
# T6 sequence (P9WMR3 whole entry): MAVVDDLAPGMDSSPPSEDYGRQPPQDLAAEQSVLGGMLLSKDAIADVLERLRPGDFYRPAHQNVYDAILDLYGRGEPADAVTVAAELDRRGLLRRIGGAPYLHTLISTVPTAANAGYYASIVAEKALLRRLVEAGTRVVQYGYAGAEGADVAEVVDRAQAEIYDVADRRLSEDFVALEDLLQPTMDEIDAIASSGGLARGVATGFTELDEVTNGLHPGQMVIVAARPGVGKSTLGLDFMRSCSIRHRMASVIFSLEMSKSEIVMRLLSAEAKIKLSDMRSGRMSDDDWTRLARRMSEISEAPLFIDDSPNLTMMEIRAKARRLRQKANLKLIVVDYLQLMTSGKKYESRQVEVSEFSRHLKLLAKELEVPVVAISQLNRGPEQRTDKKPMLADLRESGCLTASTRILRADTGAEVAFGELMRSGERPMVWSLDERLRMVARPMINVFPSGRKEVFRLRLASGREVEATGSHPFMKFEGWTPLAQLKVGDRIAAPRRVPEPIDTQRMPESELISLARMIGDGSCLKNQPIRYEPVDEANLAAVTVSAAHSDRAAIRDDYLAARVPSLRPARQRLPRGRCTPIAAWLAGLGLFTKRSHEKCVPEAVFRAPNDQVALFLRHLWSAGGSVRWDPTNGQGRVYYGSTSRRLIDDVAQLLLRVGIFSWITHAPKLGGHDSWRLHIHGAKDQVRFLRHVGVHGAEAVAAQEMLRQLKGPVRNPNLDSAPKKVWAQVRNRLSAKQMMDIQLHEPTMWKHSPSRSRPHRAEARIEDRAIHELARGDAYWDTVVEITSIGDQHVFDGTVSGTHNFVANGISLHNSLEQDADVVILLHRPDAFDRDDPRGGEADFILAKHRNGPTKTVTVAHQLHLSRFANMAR
# [10] = target: T4, Voltage-gated N-type calcium channel alpha-1B subunit/Amyloid beta A4 precursor protein-binding family A member 1; assay type: protein assay; remark: listed apart in the source
# Hexokinase HKDC1 = target: T7, Hexokinase HKDC1 (Homo sapiens, UniProt Q2TB90); assay: activation of HKDC1 glucose phosphorylation – biochemical, W721R variant, dose response (AID 504730); assay type: functional
# T7 sequence (Q2TB90 whole entry): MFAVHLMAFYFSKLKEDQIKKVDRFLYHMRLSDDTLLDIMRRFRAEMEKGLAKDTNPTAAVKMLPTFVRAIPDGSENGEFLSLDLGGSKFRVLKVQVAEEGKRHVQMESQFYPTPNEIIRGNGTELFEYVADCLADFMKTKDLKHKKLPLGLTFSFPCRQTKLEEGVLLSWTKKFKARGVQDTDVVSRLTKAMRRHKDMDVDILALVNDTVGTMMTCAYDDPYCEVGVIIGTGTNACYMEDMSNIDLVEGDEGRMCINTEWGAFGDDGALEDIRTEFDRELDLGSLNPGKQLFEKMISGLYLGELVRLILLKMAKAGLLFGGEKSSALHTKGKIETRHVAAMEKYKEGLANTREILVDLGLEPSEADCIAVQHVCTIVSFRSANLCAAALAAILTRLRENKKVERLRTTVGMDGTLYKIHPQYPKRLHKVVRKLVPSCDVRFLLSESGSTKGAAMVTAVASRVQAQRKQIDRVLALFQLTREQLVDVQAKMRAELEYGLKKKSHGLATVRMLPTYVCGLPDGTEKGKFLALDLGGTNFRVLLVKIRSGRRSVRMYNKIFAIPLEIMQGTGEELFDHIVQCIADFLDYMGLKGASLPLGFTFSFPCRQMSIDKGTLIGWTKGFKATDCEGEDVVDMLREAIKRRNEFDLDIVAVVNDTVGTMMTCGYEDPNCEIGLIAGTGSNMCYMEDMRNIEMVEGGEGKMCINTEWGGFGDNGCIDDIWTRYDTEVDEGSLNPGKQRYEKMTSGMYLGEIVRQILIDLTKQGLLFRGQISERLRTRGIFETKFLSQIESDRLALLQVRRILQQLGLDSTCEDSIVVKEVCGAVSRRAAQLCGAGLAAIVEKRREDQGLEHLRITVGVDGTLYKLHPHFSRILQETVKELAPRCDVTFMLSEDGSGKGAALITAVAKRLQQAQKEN
# Hexokinase-1 = target: T8, Hexokinase-1 (Homo sapiens, UniProt P19367); assay: HK1 enzyme activation by HKDC1 hits – biochemical, selectivity assay for HKDC1 activator project, dose response (AID 504762); assay type: functional
# T8 sequence (P19367 whole entry): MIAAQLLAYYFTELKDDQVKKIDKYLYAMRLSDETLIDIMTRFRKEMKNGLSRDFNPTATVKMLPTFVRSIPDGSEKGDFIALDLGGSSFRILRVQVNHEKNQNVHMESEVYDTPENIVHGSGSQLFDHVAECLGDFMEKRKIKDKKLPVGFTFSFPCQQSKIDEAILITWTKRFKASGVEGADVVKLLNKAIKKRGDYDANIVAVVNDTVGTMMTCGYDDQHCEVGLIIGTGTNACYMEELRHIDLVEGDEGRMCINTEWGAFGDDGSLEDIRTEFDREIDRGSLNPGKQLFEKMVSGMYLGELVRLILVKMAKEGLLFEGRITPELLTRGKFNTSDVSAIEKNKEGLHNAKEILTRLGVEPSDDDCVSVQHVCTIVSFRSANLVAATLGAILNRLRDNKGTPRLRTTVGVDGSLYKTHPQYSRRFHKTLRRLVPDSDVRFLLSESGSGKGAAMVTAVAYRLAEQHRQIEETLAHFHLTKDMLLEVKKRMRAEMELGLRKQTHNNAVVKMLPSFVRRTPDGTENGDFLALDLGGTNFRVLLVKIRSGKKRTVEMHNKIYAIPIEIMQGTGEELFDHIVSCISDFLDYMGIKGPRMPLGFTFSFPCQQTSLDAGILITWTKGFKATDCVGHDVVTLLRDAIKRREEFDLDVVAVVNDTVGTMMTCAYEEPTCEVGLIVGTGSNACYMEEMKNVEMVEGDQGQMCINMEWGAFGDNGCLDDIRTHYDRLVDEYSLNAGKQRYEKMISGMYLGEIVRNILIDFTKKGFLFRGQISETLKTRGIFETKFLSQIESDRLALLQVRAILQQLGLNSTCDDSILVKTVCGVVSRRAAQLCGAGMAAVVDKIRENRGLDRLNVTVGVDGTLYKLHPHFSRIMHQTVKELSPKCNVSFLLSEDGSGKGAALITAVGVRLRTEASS
# T4 sequence (Q00975 whole entry): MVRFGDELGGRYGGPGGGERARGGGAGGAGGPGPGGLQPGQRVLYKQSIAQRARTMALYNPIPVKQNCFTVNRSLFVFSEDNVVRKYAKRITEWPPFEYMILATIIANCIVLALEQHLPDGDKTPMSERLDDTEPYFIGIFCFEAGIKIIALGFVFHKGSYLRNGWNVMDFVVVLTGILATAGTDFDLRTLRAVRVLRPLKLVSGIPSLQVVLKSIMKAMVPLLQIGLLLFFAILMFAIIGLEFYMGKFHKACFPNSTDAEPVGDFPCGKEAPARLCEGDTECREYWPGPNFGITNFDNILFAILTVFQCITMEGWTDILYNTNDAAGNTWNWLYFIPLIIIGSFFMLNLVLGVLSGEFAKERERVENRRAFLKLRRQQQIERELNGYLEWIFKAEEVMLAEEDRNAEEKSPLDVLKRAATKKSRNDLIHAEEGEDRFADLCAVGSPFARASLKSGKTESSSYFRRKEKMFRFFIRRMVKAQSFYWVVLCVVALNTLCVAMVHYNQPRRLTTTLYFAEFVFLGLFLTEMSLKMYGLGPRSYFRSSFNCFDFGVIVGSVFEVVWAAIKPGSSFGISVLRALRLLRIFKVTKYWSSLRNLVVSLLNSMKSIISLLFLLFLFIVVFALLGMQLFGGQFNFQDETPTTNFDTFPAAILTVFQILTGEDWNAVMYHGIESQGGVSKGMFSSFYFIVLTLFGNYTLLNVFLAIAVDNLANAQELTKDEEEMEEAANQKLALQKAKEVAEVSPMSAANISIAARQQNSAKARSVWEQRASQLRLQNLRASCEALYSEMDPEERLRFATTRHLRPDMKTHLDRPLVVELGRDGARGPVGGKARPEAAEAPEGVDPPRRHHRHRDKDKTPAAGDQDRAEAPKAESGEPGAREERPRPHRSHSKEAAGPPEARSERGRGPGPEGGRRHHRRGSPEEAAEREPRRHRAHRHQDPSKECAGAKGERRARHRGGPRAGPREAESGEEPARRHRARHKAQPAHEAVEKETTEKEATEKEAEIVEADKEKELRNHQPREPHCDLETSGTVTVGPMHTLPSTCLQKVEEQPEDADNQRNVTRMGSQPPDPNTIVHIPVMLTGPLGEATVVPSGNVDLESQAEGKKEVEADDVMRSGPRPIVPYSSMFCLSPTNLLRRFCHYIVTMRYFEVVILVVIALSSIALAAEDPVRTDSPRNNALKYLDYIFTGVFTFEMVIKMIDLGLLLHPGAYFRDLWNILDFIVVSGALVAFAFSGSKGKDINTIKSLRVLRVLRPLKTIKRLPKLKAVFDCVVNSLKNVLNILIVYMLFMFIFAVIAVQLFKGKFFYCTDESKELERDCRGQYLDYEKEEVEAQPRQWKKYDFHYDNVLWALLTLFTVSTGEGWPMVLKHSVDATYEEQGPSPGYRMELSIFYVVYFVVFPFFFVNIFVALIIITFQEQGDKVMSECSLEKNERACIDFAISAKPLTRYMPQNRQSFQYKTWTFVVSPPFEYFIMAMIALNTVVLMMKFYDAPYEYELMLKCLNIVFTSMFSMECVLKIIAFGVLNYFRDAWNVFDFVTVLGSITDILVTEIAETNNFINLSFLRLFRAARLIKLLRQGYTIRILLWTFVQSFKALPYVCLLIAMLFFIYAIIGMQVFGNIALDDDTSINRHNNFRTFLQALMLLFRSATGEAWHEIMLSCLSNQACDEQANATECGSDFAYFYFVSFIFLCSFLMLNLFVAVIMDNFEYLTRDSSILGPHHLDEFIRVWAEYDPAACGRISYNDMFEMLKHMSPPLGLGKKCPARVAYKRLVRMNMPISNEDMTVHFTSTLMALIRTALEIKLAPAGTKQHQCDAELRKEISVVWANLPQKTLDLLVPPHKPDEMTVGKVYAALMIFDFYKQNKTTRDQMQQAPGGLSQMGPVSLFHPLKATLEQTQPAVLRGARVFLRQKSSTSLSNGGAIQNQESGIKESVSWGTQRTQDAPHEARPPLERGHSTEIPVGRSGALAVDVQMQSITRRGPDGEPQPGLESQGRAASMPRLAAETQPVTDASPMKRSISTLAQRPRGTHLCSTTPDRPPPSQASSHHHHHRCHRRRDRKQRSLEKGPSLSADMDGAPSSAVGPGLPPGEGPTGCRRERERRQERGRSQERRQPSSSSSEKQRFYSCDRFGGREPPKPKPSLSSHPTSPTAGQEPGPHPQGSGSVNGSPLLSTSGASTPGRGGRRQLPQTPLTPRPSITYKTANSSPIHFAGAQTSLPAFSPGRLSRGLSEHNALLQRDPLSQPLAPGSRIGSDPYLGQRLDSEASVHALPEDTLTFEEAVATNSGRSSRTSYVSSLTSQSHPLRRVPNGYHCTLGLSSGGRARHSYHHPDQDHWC
# T4 sequence (Q02410 whole entry): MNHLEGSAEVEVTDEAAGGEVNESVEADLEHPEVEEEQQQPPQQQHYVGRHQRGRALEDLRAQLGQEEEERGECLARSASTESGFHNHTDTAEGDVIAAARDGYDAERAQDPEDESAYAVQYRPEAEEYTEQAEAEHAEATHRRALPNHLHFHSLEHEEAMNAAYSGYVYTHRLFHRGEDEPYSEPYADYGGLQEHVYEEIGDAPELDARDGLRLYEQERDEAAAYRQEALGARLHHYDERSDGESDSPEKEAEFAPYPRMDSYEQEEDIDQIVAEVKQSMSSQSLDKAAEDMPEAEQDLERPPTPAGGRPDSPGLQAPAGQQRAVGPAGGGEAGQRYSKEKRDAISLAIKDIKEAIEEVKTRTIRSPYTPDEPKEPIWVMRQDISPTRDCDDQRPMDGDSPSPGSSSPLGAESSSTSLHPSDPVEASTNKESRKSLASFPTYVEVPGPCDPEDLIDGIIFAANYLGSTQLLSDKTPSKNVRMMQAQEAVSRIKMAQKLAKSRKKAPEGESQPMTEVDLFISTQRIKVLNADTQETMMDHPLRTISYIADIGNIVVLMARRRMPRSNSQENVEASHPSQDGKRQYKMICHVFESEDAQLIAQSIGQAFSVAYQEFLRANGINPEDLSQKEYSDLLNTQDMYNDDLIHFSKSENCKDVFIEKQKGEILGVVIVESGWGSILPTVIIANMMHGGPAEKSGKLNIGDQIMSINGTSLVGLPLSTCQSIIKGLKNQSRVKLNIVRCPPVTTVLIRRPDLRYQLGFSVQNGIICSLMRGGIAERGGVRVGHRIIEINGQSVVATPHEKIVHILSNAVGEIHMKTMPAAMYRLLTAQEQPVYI
# Chain of Paired box protein Pax-8 (Q06710 whole entry): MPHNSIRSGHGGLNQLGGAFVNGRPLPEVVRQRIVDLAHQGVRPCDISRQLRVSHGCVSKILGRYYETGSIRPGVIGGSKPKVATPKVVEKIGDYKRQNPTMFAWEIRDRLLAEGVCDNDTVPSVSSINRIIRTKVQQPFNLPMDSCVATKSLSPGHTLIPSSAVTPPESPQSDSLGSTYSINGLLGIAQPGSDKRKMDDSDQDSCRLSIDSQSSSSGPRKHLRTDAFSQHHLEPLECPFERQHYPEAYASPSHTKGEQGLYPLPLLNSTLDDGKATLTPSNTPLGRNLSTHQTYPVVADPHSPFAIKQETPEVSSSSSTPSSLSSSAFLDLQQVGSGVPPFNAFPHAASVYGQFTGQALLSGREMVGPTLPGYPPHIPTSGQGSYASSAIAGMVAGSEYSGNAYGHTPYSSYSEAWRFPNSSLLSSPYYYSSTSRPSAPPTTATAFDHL
structure (smiles),measurement,setting,value
CN1CCS/C1=C\C=C1/SC(=S)N(CC(=O)O)C1=O,IC50,Leucine aminopeptidase,52.3 µM (active)
same,EC50,Mucolipin-3,7.93 µM (active)
same,EC50,Ion channel NompC,5.26 µM (active)
same,EC50,[1],> 100 µM (active)
same,EC50,[2],89.8 µM (not active)
same,IC50,[3],7.69 µM (not active)
same,EC50,[4],62.2 µM (not active)
same,EC50,[5],> 79.4 µM (not active)
N#Cc1nccnc1S(=O)(=O)c1cccs1,AC50,[6],23 µM (active)
same,AC50,Paired box protein Pax-8,4.59 µM (active)
same,IC50,[7],22.7 µM (active)
same,AC50,[8],13.5 µM (active)
same,EC50,Protein RecA,6.36 µM (active)
same,AC50,[9],8.49 µM (active)
same,IC50,[10],1.13 µM (active)
Cc1ccc(/N=C2\C(=S)N(c3ccc(C)cc3)C(=N)N2/N=C/c2ccc(Cl)cc2)cc1,EC50,Hexokinase HKDC1,> 80 µM (inactive)
same,EC50,Hexokinase-1,> 80 µM (inactive)
